Where a SMILES comes first, the peptide text is derived from it. [ ]: non-standard residue; d: D form. Dab = NCC[C@H](N)C(=O)O; Dap = NC[C@H](N)C(=O)O
Legend:
[1] = Circular dichroism, helical structure; format: physicochemical; conditions: for [θ]222, aqueous pH 7 / [θ]222, 50% TFE: CD, 222 nm; for [θ]222, aqueous pH 7 / [θ]222, 50% TFE / % helix, aqueous pH 7: 25 °C; for [θ]222, aqueous pH 7: 100 mM KCl, 50 mM Na2HPO4/NaH2PO4, pH 7.0; for [θ]222, 50% TFE: pH 7.0 buffer containing 50% TFE; for % helix induced: increase in molar ellipticity (as a percentage) in the presence of 50% TFE; for % helix, aqueous pH 7: relative to the molar ellipticity of the peptide in 50% TFE
[2] = RP-HPLC temperature profiling, self-association; format: physicochemical; conditions: temperature at which maximum retention time is observed over 5–77 °C, Zorbax 300 SB-C8, 0.5% acetonitrile/min, 0.30 mL/min, TFA pH 2
[3] = test system: human red blood cells; experiment: Hemolytic activity; format: cell-based; conditions: for HC50: pH 7.4

Structure (SMILES)	[θ]222, aqueous pH 7 [1]	[θ]222, 50% TFE [1]	% helix induced [1]	% helix, aqueous pH 7 [1]	Tp [2]	HC50 fold improvement [3]	HC50 [3]
CC(=O)N[C@H](CCCCN)C(=O)N[C@H](CC(C)C)C(=O)N[C@@H](CCN)C(=O)N[C@H](CO)C(=O)N[C@H](CC(C)C)C(=O)N[C@H](CC(C)C)C(=O)N[C@@H](CCN)C(=O)N[C@@H](C(=O)N[C@H](CC(C)C)C(=O)N[C@H](CO)C(=O)N[C@@H](CCN)C(=O)N[C@H](C)C(=O)N[C@H](C)C(=O)N[C@H](C)C(=O)N[C@H](C)C(=O)N[C@H](C)C(=O)N[C@H](CC(C)C)C(=O)N[C@@H](CCN)C(=O)N[C@@H](C(=O)N[C@H](CC(C)C)C(=O)N[C@H](CC(C)C)C(=O)N[C@@H](CCN)C(=O)N[C@H](C)C(=O)N[C@H](CC(C)C)C(=O)N[C@H](CO)C(=O)N[C@@H](CCN)C(N)=O)[C@H](C)O)[C@H](C)O [D86(K13A/K16A)-(Lys^1-6 Dab-1)] (Ac-[dK][dL][Dab][dS][dL][dL][Dab][dT][dL][dS][Dab][dA][dA][dA][dA][dA][dL][Dab][dT][dL][dL][Dab][dA][dL][dS][Dab]-NH2)	2308 mdeg cm^2/(dmol × res)	18731 mdeg cm^2/(dmol × res)	88%	12%	31.0 °C		
CC(=O)N[C@H](CCCCN)C(=O)N[C@H](CC(C)C)C(=O)N[C@@H](CCN)C(=O)N[C@H](CO)C(=O)N[C@H](CC(C)C)C(=O)N[C@H](CC(C)C)C(=O)N[C@@H](CCN)C(=O)N[C@@H](C(=O)N[C@H](CC(C)C)C(=O)N[C@H](CO)C(=O)N[C@@H](CCN)C(=O)N[C@H](C)C(=O)N[C@H](CCCCN)C(=O)N[C@H](C)C(=O)N[C@H](C)C(=O)N[C@H](CCCCN)C(=O)N[C@H](CC(C)C)C(=O)N[C@@H](CCN)C(=O)N[C@@H](C(=O)N[C@H](CC(C)C)C(=O)N[C@H](CC(C)C)C(=O)N[C@@H](CCN)C(=O)N[C@H](C)C(=O)N[C@H](CC(C)C)C(=O)N[C@H](CO)C(=O)N[C@@H](CCN)C(N)=O)[C@H](C)O)[C@H](C)O [D86(Lys^1-6 Dab-1)] (Ac-[dK][dL][Dab][dS][dL][dL][Dab][dT][dL][dS][Dab][dA][dK][dA][dA][dK][dL][Dab][dT][dL][dL][Dab][dA][dL][dS][Dab]-NH2)	1769 mdeg cm^2/(dmol × res)	27923 mdeg cm^2/(dmol × res)	94%	6%	5.0 °C	>186	>2000 µg/mL
CC(=O)N[C@H](CCCCN)C(=O)N[C@H](CC(C)C)C(=O)N[C@@H](CCN)C(=O)N[C@H](CO)C(=O)N[C@H](CC(C)C)C(=O)N[C@H](CC(C)C)C(=O)N[C@@H](CCN)C(=O)N[C@@H](C(=O)N[C@H](CC(C)C)C(=O)N[C@H](CO)C(=O)N[C@@H](CCN)C(=O)N[C@H](C)C(=O)N[C@H](CCCCN)C(=O)N[C@H](C)C(=O)N[C@H](C)C(=O)N[C@H](CCCCN)C(=O)N[C@H](CC(C)C)C(=O)N[C@@H](CCN)C(=O)N[C@@H](C(=O)N[C@H](CC(C)C)C(=O)N[C@H](CC(C)C)C(=O)N[C@@H](CCN)C(=O)N[C@H](C)C(=O)N[C@H](CC(C)C)C(=O)N[C@H](CO)C(=O)N[C@H](CO)C(N)=O)[C@H](C)O)[C@H](C)O [D102(Lys^1Ser^26-5 Dab-1)] (Ac-[dK][dL][Dab][dS][dL][dL][Dab][dT][dL][dS][Dab][dA][dK][dA][dA][dK][dL][Dab][dT][dL][dL][Dab][dA][dL][dS][dS]-NH2)						>177	>2000 µg/mL
CC(=O)N[C@H](CCCCN)C(=O)N[C@H](CC(C)C)C(=O)N[C@@H](CN)C(=O)N[C@H](CO)C(=O)N[C@H](CC(C)C)C(=O)N[C@H](CC(C)C)C(=O)N[C@@H](CN)C(=O)N[C@@H](C(=O)N[C@H](CC(C)C)C(=O)N[C@H](CO)C(=O)N[C@@H](CN)C(=O)N[C@H](C)C(=O)N[C@H](C)C(=O)N[C@H](C)C(=O)N[C@H](C)C(=O)N[C@H](C)C(=O)N[C@H](CC(C)C)C(=O)N[C@@H](CN)C(=O)N[C@@H](C(=O)N[C@H](CC(C)C)C(=O)N[C@H](CC(C)C)C(=O)N[C@@H](CN)C(=O)N[C@H](C)C(=O)N[C@H](CC(C)C)C(=O)N[C@H](CO)C(=O)N[C@@H](CN)C(N)=O)[C@H](C)O)[C@H](C)O [D105(K13A/K16A)-(Lys^1-6 Dap-1)] (Ac-[dK][dL][Dap][dS][dL][dL][Dap][dT][dL][dS][Dap][dA][dA][dA][dA][dA][dL][Dap][dT][dL][dL][Dap][dA][dL][dS][Dap]-NH2)	9577 mdeg cm^2/(dmol × res)	18038 mdeg cm^2/(dmol × res)	47%	53%	39.0 °C		
CC(=O)N[C@H](CCCCN)C(=O)N[C@H](CC(C)C)C(=O)N[C@@H](CN)C(=O)N[C@H](CO)C(=O)N[C@H](CC(C)C)C(=O)N[C@H](CC(C)C)C(=O)N[C@@H](CN)C(=O)N[C@@H](C(=O)N[C@H](CC(C)C)C(=O)N[C@H](CO)C(=O)N[C@@H](CN)C(=O)N[C@H](C)C(=O)N[C@H](CCCCN)C(=O)N[C@H](C)C(=O)N[C@H](C)C(=O)N[C@H](CCCCN)C(=O)N[C@H](CC(C)C)C(=O)N[C@@H](CN)C(=O)N[C@@H](C(=O)N[C@H](CC(C)C)C(=O)N[C@H](CC(C)C)C(=O)N[C@@H](CN)C(=O)N[C@H](C)C(=O)N[C@H](CC(C)C)C(=O)N[C@H](CO)C(=O)N[C@@H](CN)C(N)=O)[C@H](C)O)[C@H](C)O [D105(Lys^1-6 Dap-1)] (Ac-[dK][dL][Dap][dS][dL][dL][Dap][dT][dL][dS][Dap][dA][dK][dA][dA][dK][dL][Dap][dT][dL][dL][Dap][dA][dL][dS][Dap]-NH2)	5961 mdeg cm^2/(dmol × res)	24192 mdeg cm^2/(dmol × res)	75%	25%	16.9 °C	>287	>3000 µg/mL

Source: article PMC6886721 (Journal of medicinal chemistry, 2019)
